The text below walks through data of patent publication US10610498B2, “Oral veterinary composition with gabapentin” (priority 2015, dated 2020).

The test system of series [1] is dogs with moderate to severe osteoarthritis. Put plainly: Pain caused by osteoarthritis in dogs, Liverpool Osteoarthritis in Dogs questionnaire. To be noted: Medians±EE. In kind it is in vivo. Also noted: scale not given here. As for the experimental part: (§1) In addition to the tests performed for the treatment of epilepsy, the effect of gabapentin in the pain treatment in dogs caused by osteoarthritis was evaluated, 30 animals of race, age, weight and variable sex were used, with 3/5 of body condition and clinical and radiological signs from moderate to severe of osteoarthritis, according to the Bioarth scale. Two study groups were formed:
(§2) a) G0-D Group: treated with fluoxetine at dose of 1 mg/Kg of body weight, every 12 hours, orally.
(§3) b) G1-D Group: treated with gabapentin of 1.5-10 mg/Kg of body weight, every 12 hours, orally.
(§4) The dogs were monitored 8 consecutive weeks by applying the questionnaires of the Subjective Clinical Evaluation System, Liverpool Osteoarthritis in Dogs and the Helsinki Chronic Pain Index to the owners of the dogs, before and after administration of the treatments.
The results of the global observations made by the owners with the Liverpool Osteoarthritis in Dogs questionnaire expressed in Medians±EE are presented in Table 3. The Wilcoxon ranks test was performed using the SPSS Statistics program considering statistically significant values for a level of p<0.05.

The test system is the same in series [2]. Kind of series: Pain caused by osteoarthritis in dogs, Subjective Clinical Evaluation System. The settings on record: for Subjective Clinical Evaluation System, global observations: Medians±EE; for Result for the pain treatment (different pain assessment questionnaires): dogs with osteoarthritis, oral, every 12 hours, 8 weeks. Format: in vivo. As for the experimental part: as §1, §2, §3, §4
The Subjective Clinical Evaluation System includes the following evaluation points:
3) Mobility of the affected joint: (0) No limitation of movement and no crepitus is palpable, (1) slight decrease in range of motion (10-20%), no crepitus is palpable, (2) slight decrease in range of motion (10-20%) with palpable crepitation, (3) moderate decrease in range of motion (20-50%) and (4) severe decrease in range of motion (>50%) with palpable crepitus.
4) Hold the contralateral limb high: (0) quickly accept to raise the contralateral limb, (1) offer resistance to the contralateral limb elevation, but maintain its weight on the affected limb for more than one minute, (2) offer moderate resistance to the elevation of the contralateral limb and replaces it after 30 seconds, (3) it offers resistance to the elevation of the contralateral limb and replaces it after 10 seconds and (4) refuses to elevate the contralateral limb.
Statistically significant values were considered for a level of p<0.05.

Series [3] has the same test system. Put plainly: Pain caused by osteoarthritis in dogs, Helsinki Chronic Pain Index questionnaire. In kind it is in vivo. To be noted: Medians±EE. How it is done:
as §1, §2, §3, §4
The results of the global observations made by the owners with the Helsinki Chronic Pain Index questionnaire expressed in Medians±EE are presented in Table 3. The Wilcoxon ranks test was performed using the SPSS Statistics program considering statistically significant values for a level of p<0.05.

The conditions of series [4]: horses; 5 mg/Kg oral; cited from earlier work.
The next series has as its system neuropathic pain. To be noted: individually, maximum effect at 60 minutes post-treatment, cited from earlier work.
For series [5] the following is noted: horses, cited from earlier work.
In series [6] the test system is dogs diagnosed with idiopathic epilepsy. Kind of series: Efficacy of gabapentin vs phenobarbital against idiopathic epilepsy in dogs (seizure episodes, adverse effects). In kind it is in vivo. To be noted: for Seizure number per month prior to the study: baseline; for Seizure number per month prior to the study / Changes in the type of seizure / Clinical adverse effects observed / Seizure number per month after the study: individual dogs; for Seizure number per month after the study: monitored 3 months. How it is done:
a) G0-E Group: treated with phenobarbital at dose of 2 mg/Kg of body weight, every 12 hours.
b) G1-E Study Group: treated with gabapentin of 10 mg/Kg of body weight, divided 3 times a day by oral administration.
c) G2-E Study Group: treated with gabapentin of 20 mg/Kg of body weight, divided 3 times a day by oral administration.
Patients were monitored for 3 consecutive months, quantifying seizure episodes for each of the patients, obtaining the following: […]

For the next series, the system named is calf dehorning. To be noted: gabapentin 15 mg/Kg oral, alone or with meloxicam; cited from earlier work.
For series [7] the following is noted: reported in dogs; cited from earlier work.
For series [8], the system named is cats. The settings on record: for 10 and 12 days; cited from earlier work.
In a further series the test system is plasma proteins. The settings on record: cited from earlier work.
The test system of series [9] is dogs. To be noted: cited from earlier work.
For series [10], the system named is cats. The settings on record: cited from earlier work.
In series [11] the test system is dogs. To be noted: cited from earlier work. The source holds these as a separate data set.
Another series relates to horses. The settings on record: 2 g/12 h/IV for 8 days; cited from earlier work.
[12] abbreviates: G0-D, fluoxetine 1 mg/Kg every 12 hours orally, WEEK 0.
Where [13] appears, read: G0-D, fluoxetine 1 mg/Kg every 12 hours orally, WEEK 1.
[14] abbreviates: G0-D, fluoxetine 1 mg/Kg every 12 hours orally, WEEK 2.
Setting [15] is: G0-D, fluoxetine 1 mg/Kg every 12 hours orally, WEEK 3.
The mark [16] stands for this setting: G0-D, fluoxetine 1 mg/Kg every 12 hours orally, WEEK 4.
Where [17] appears, read: G0-D, fluoxetine 1 mg/Kg every 12 hours orally, WEEK 5.
Where [18] appears, read: G0-D, fluoxetine 1 mg/Kg every 12 hours orally, WEEK 6.
The mark [19] stands for this setting: G0-D, fluoxetine 1 mg/Kg every 12 hours orally, WEEK 7.
The mark [20] stands for this setting: G0-D, fluoxetine 1 mg/Kg every 12 hours orally, WEEK 8.
Where [21] appears, read: G1-D, gabapentin 1.5-10 mg/Kg every 12 hours orally, WEEK 0.
The mark [22] stands for this setting: G1-D, gabapentin 1.5-10 mg/Kg every 12 hours orally, WEEK 1.
Where [23] appears, read: G1-D, gabapentin 1.5-10 mg/Kg every 12 hours orally, WEEK 2.
Where [24] appears, read: G1-D, gabapentin 1.5-10 mg/Kg every 12 hours orally, WEEK 3.
The mark [25] stands for this setting: G1-D, gabapentin 1.5-10 mg/Kg every 12 hours orally, WEEK 4.
The mark [26] stands for this setting: G1-D, gabapentin 1.5-10 mg/Kg every 12 hours orally, WEEK 5.
Where [27] appears, read: G1-D, gabapentin 1.5-10 mg/Kg every 12 hours orally, WEEK 6.
Where [28] appears, read: G1-D, gabapentin 1.5-10 mg/Kg every 12 hours orally, WEEK 7.
The mark [29] stands for this setting: G1-D, gabapentin 1.5-10 mg/Kg every 12 hours orally, WEEK 8.
[30] abbreviates: G1-E, gabapentin 10 mg/Kg divided 3 times a day, oral.
Where [31] appears, read: G2-E, gabapentin 20 mg/Kg divided 3 times a day, oral.
The mark [32] stands for this setting: G0-E, phenobarbital 2 mg/Kg every 12 hours.

Values joined by “and” are separate entries in the source; they are usually repeats but may differ in a detail not shown here. Equal entries are not always repeated. Where two headings read alike, the source gives them in different places.

`CNCCC(Oc1ccc(C(F)(F)F)cc1)c1ccccc1` (centres unmarked) [Fluoxetine]: the “Liverpool Osteoarthritis in Dogs questionnaire” value (“Liverpool Osteoarthritis” for short) was found to be 26 ± 2.2 in series [1] (setting [12]); 23.5 ± 5.4 in series [1] (setting [13]); 26 ± 5.19 in [1] (setting [14]); 22.5 ± 4.52 in series [1] (setting [15]); 22.5 ± 4.38 in series [1] (setting [16]); 23 ± 2.95 in [1] (setting [17]). The entries for the “Liverpool Osteoarthritis” value in [1] (setting [18]), in series [1] (setting [19]) and in series [1] (setting [20]) were 23 ± 2.56, 22.5 ± 1.95 and 20.5 ± 1.35, respectively. For the same compound, the “Subjective Clinical Evaluation System, global observations” value in series [2] (setting [12]) came out at 8.5 ± 0.51; in series [2] (setting [16]), 8.5 ± 1.19; in series [2] (setting [20]), 8 ± 1.79. Further, in series [2], the “Result for the pain treatment (different pain assessment questionnaires)” value was “significantly favorable”. Moreover, the “Helsinki Chronic Pain Index questionnaire” value was 21.5 ± 2.43 in series [3] (setting [12]); 20.5 ± 3.66 in series [3] (setting [13]); 20 ± 3.1 in series [3] (setting [14]); 15.5 ± 3.1 in series [3] (setting [15]); 15.5 ± 2.56 in [3] (setting [16]); 15 ± 1.54 in series [3] (setting [17]). Besides, the “Helsinki Chronic Pain Index questionnaire” value in series [3] (setting [18]) amounted to 14 ± 2.35; in [3] (setting [19]), 13.5 ± 1.55; in [3] (setting [20]), 13.5 ± 1.41.

Regarding `NCC1(CC(=O)O)CCCCC1` [Gabapentin], the “Liverpool Osteoarthritis” value in [1] (setting [21]) worked out at 27 ± 2.85; in series [1] (setting [22]) it was 24 ± 2.26; in [1] (setting [23]), 22 ± 2.35; in series [1] (setting [24]), 23 ± 3.15; in series [1] (setting [25]), 22 ± 3.56; in [1] (setting [26]), 26 ± 3.15. Besides, the “Liverpool Osteoarthritis” value in series [1] (setting [27]) is 26 ± 2.86; in [1] (setting [28]), 23 ± 2.67; in series [1] (setting [29]), 20 ± 2.35. In addition, the half-life – broadly, how long it takes for the measured level to halve – in series [4] is listed as 3.4 h; in series [5] (20 mg/kg IV) it was 8.5 h; in series [5] (20 mg/kg p.o.) it was 7.7 h; in series [7], 3.4 h. Further, the antihyperalgesic effect in the series on neuropathic pain (gabapentin 17.8 mg/Kg subcutaneously) is given as 55%. The Reduction of seizures entry in series [6] (10 mg/kg oral, month 3 of treatment, best result of the doses evaluated) is “significant reduction of seizures”. Further, the “Seizure number per month prior to the study” value in series [6] (setting [30]) is 11 and 4 and 5 (2×) and 8 and 10 and 6 and 1 and 3 and 9; in [6] (setting [31]) it was 8 (3×) and 2 (2×) and 12 and 6 and 4 (2×) and 3. For the same compound, the “Changes in the type of seizure” value is “NONE (6×) and PARTIAL CONVULSIONS (4×)” in series [6] (setting [30]); “PARTIAL CONVULSIONS (3×) and NONE (4×) and CLONIC TONIC (3×)” in series [6] (setting [31]). For the same compound, the “Clinical adverse effects observed” value in [6] (setting [30]) is “NONE (9×) and LIGHT SEDATION”; in [6] (setting [31]), “LIGHT SEDATION (3×) and NONE (6×) and SOMNOLENCE”. Besides, the “Seizure number per month after the study” value in [6] (setting [30]) is 0 (7×) and RESCUED (2×) and 1; in series [6] (setting [31]) it was 2 (2×) and 0 (4×) and 1 (2×) and RESCUED and 3. Further, the “average daily gain compared to the control” value in the series on calf dehorning is on record as “significantly decreases”. In the series with calf dehorning, the “concentration of substance P compared to the control” value is given as “significantly decreases”. The “Subjective Clinical Evaluation System, global observations” value stood at 9 ± 0.86 in series [2] (setting [21]), 4 ± 1.02 in [2] (setting [25]) and 6 ± 0.73 in series [2] (setting [29]). Also, the “Result for the pain treatment (different pain assessment questionnaires)” value in [2] was “significantly favorable”. For the same compound, the “Helsinki Chronic Pain Index questionnaire” value in series [3] (setting [21]) was 22 ± 1.75; in series [3] (setting [22]), 15 ± 3.23; in series [3] (setting [23]) it was 20 ± 2.87; in series [3] (setting [24]) it was 15 ± 3.06; in [3] (setting [25]), 18 ± 2.98; in series [3] (setting [26]) it was 17 ± 3.68. Further, the “Helsinki Chronic Pain Index questionnaire” value in [3] (setting [27]) worked out at 18 ± 3.03; in series [3] (setting [28]), 18 ± 2.8; in series [3] (setting [29]) it was 16 ± 2.42.

For `CCC1(c2ccccc2)C(=O)NC(=O)NC1=O` [Phenobarbital, phenobarbital], in [6] (setting [32]), the “Seizure number per month prior to the study” value is 3 and 11 and 13 and 2 (3×) and 8 and 7 and 10 and 1; the “Clinical adverse effects observed” value was “NONE (6×) and HYPER- and LIGHT SEDATION (3×)”; the “Seizure number per month after the study” value was 0 (5×) and 4 and 1 (4×).

Take `CC(=O)Oc1ccccc1C(=O)O` [acetylsalicylic acid]: the toxic dose in the series with cats [8] is on record as 80-120 mg/Kg/24 h. The “bound to plasma proteins” value in the series on plasma proteins is listed as 90%. Further, the “dose at which vomiting and gastric ulcers have been described” value in the series with dogs [9] (intake for 1 week) is listed as “greater than 50 mg/kg/24 h”; in the series with dogs [9] (intake for 4 weeks) it was > 100 mg/kg/24 h.

Consider `CN1CC[C@]23c4c5ccc(O)c4O[C@H]2[C@@H](O)C=C[C@H]3[C@H]1C5` [morphine], for which the antihyperalgesic effect in the series with neuropathic pain (morphine 3.2 mg/Kg subcutaneously) is reported as 51.7%.

Consider `CC(=O)Nc1ccc(O)cc1` [paracetamol], for which the toxic dose is 50 mg/kg with cats [10] and 150 mg/kg with dogs [11].

`CCCCC1C(=O)N(c2ccccc2)N(c2ccccc2)C1=O` [phenylbutazone]: the “adverse effects of claudication treatment” value in the series with horses is “gastric ulcers and necrotizing colitis with protein loss”.
